{
  "source": "paper PMC12048447",
  "about": "“PANTAX: a phase Ib clinical trial of the efflux pump inhibitor SCO-101 in combination with gemcitabine and nab-paclitaxel in non-resectable or metastatic pancreatic cancer” (Investigational New Drugs, 2025)",
  "key": {"[1]": {"system": "patients with colorectal cancer", "settings": "SCO-101 with FOLFIRI, patients with prior progression on FOLFIRI, cited from earlier work"}, "wild-type PANC-1 cells": {"system": "wild-type PANC-1 cells", "assay": "Crystal violet combination assay in wild-type PANC-1 cells", "format": "cell-based, human", "settings": "120 h drug incubation", "procedure": "For the crystal violet assay, cells were seeded into 6-well plates at a density of 40,000 cells/well or into 48-wells with 4000 cells/well. One day after seeding, the cells were experimentally treated. Control conditions consisted of either growth medium (‘untreated’) or DMSO diluted in growth medium. All treatments were performed in triplicates. The cells were then kept in the CO2 incubator at 37 °C until staining with crystal violet dye for 10mins and let to dry overnight. The following day crystal violet dye was dissolved using 20% acetic acid and absorbance was measured at 570 nm.\nExperiments with 4 different concentrations of either SCO-101 or paclitaxel and their combinations were applied to test for synergy among these two compounds in both the PANC-1 parental and -Paclitaxel resistant cells. […] The SRPK1 inhibitor SPHINX31 was tested at 0.1; 0.5; 1 and 5 µM. The SRPK1 inhibitor SRPIN was tested at 1; 5; 10 and 50 µM. Both inhibitors were tested in combination with 5, 10, 15 and 20 nM Paclitaxel.\nA) the resistant PANC-1-Pac and B) the sensitive parental PANC-1 cell lines. Cells were either 1) untreated, 2) incubated with 30µM SCO-101, 3) 40µM SCO-101, 4) 4nM paclitaxel, 5) 30µM SCO-101 + 4nM paclitaxel or 6) 40µM SCO-101 + 4nM paclitaxel. Drug incubation for 120 hours was followed by staining with crystal violet."}, "[2]": {"assay": "PANTAX phase Ib: plasma pharmacokinetics of SCO-101", "format": "in vivo, human", "procedure": "Pharmacokinetics (PK) blood samples were drawn during the first cycle of treatment on day one of SCO-101 administration (6 time points), on day six (6 time points), and on day nine (72 h after last SCO-101 treatment). Plasma samples were analyzed for SCO-101 using a bioanalytical method (BM/2020/0998) developed and validated under study KF64YR at LabCorp (England). SCO-101 was extracted from human plasma by protein precipitation and analyzed by liquid chromatography using tandem mass spectrometry (LC–MS/MS). Pharmacokinetic parameters were determined by noncompartmental analysis using the software package SAS (version 9.4 or higher). The PK profile of SCO-101 was evaluated by maximum drug plasma concentration (Cmax) and area under the plasma drug concentration–time curve (AUC0 to 8 h)."}, "[3]": {"set-up": "method as in PMID 32628359", "settings": "healthy volunteers, cited from earlier work"}, "[4]": {"system": "patients with non-resectable or metastatic PDAC", "assay": "PANTAX phase Ib: efficacy (RECIST v1.1, PFS, OS, Ca 19-9)", "format": "in vivo, human", "settings": "SCO-101 with Gem and Nab", "source_text": "The PANTAX trial was a prospective, international multicenter phase Ib open-label, non-randomized, dose-escalation study aiming to determine the MTD, safety, and tolerability of SCO-101 when combined with Gem and Nab in patients with non-resectable or metastatic PDAC (Protocol nr. SCO101-002, EudraCT nr. 2020–002627-11; ClinicalTrials.gov identifier NCT04652206). Furthermore, the study aimed to establish the pharmacokinetic profile of SCO-101 in combination with Gem and Nab. ORR, clinical benefit rate (CBR), median progression free survival (mPFS), and mOS were included as secondary end points.\nTumor evaluation by CT and MRI scans were done every 8 weeks. Response was determined according to RECIST v 1.1 [21] by local assessment. ORR was determined as the percentage of evaluable patients experiencing a complete response (CR) or partial response (PR). CBR was determined as the percentage of evaluable patients experiencing response or stable disease (SD) for over 16 weeks. Date of study inclusion was the index date. For assessment of PFS, the date of PD was the date of imaging showing progression or date of last treatment in patients with deteriorating clinical condition. Patients not followed until progression were censored for PFS at the date of last follow-up. One patient was lost to follow-up for survival and was censored from OS analysis on the date of last visit. End of study was 6 months after the last patients last treatment visit."}, "[5]": {"biological_target": "T1, ABCB1 (MDR1) human ABC transporter (Homo sapiens, UniProt P08183)", "T1 construct": "purchased SOLVO Biotechnology", "T1 sequence (P08183 whole entry)": "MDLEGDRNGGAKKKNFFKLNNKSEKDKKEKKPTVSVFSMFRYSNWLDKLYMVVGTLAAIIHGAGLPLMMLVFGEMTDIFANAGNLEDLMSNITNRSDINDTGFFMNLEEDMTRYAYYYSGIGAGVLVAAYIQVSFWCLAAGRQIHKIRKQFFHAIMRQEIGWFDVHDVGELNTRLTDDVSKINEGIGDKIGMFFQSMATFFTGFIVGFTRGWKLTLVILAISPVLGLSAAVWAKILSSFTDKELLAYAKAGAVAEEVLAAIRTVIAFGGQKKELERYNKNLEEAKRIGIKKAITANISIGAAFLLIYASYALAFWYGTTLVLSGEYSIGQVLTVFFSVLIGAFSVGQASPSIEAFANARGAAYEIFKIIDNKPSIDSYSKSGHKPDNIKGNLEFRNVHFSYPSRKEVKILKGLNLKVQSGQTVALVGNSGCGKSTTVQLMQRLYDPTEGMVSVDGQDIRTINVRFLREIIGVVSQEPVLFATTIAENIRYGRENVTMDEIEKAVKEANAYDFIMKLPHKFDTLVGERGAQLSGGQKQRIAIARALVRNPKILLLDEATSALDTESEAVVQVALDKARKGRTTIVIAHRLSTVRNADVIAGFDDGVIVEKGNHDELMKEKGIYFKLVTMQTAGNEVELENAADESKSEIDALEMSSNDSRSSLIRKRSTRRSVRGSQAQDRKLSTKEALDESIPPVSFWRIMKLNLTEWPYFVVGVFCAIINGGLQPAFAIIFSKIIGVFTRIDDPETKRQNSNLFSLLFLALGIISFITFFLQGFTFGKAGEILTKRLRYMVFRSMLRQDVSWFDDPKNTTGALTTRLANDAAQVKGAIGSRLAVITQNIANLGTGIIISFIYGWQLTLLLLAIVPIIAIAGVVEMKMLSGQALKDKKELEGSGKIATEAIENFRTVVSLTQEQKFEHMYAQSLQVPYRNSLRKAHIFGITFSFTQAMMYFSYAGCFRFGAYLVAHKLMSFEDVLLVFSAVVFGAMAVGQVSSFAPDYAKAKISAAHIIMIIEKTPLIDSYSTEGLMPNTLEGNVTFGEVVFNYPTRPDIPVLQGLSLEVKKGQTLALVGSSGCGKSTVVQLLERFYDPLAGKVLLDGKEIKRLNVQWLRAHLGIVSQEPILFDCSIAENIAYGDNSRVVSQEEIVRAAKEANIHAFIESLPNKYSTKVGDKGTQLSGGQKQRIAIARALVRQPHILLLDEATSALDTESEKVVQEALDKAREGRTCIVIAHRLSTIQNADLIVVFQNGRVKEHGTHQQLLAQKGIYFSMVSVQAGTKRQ", "assay": "ABCB1 (MDR1) vesicular uptake inhibition in inside-out membrane vesicles", "format": "biochemical", "settings": "vesicular uptake of probe substrate, SCO-101 1.2-300 µM, with and without ATP; read-out: IC50, inhibition of MDR1/ABCB1 efflux transporter", "procedure": "Analysis of SCO-101 ABCB1 (MDR1) efflux transporter inhibition was evaluated by measuring the vesicular uptake of a probe substrate into inside-out membrane vesicles expressing ABCB1 (MDR1) human ABC transporter in the absence and presence of SCO-101 (1.2 –300 μM) with and without ATP. Transporter inhibition was observed as reduced level of vesicular uptake of the probe substrate in the presence of ATP. ABCB1 (MDR1) assay was conducted with reagents from PredivezTM VT Reagent Kit for MDR1/P-gp (SOLVO Biotechnology). Assays were conducted as per the manufacturer’s recommendation. The inhibition was evaluated by measuring the vesicular uptake of a probe substrate into inside-out membrane vesicles. Assays were conducted with or without ATP and in the absence and presence of SCO-101 at the indicated concentrations (1.2 –300μM)."}},
  "data": [
    {"smiles": "O=C(Nc1cc(C(F)(F)F)cc(C(F)(F)F)c1)Nc1ccc(Br)cc1-c1nnn[nH]1", "note": "[SCO-101]", "values": [
      {"measurement": "tumor response", "setting": "[1]; 4 of 25 patients", "result": 16, "unit": "%"},
      {"measurement": "mOS", "setting": "[1]", "result": 10.4, "unit": "months"},
      {"measurement": "combination effect of SCO-101 and paclitaxel", "setting": "wild-type PANC-1 cells", "result": "no combination effect"},
      {"measurement": "increase in exposure with dose", "setting": "[2]; 50-250 mg daily, Cmax and AUC0-8 h", "result": "approximately dose proportional"},
      {"measurement": "fraction of SCO-101 Cmax present at day 9", "setting": "[2]; average, 200 mg and 250 mg doses, 72 h after last SCO-101 treatment", "result": 33, "unit": "%"},
      {"measurement": "accumulation of Cmax and AUC0-8 h", "setting": "[2]; daily doses for 6 consecutive days, plasma, patients", "result": "two- to threefold"},
      {"measurement": "individuals who developed clinical jaundice", "setting": "[3]; 150 mg dose cohort", "result": "Two"},
      {"measurement": "adverse events", "setting": "[3]; single doses up to 200 mg or multiple doses up to 150 mg daily for 14 days", "result": "mild adverse events (AEs) and no serious adverse events (SAEs)"},
      {"measurement": "patients with reduction of serum Ca 19-9 of at least 25%", "setting": "[4]; 15 patients with elevated Ca 19-9 at treatment initiation", "result": 53, "unit": "%"},
      {"measurement": "objective response rate (ORR)", "setting": "[4]; 15 evaluable patients", "result": 6.7, "unit": "%"},
      {"measurement": "median progression-free survival (mPFS)", "setting": "[4]; CI 1.7-9.2 months", "result": 3.3, "unit": "months"},
      {"measurement": "median overall survival (mOS)", "setting": "[4]; CI 5.7-16 months", "result": 9.5, "unit": "months"},
      {"measurement": "clinical benefit rate (CBR)", "setting": "[4]; response or SD over 16 weeks, 15 evaluable patients", "result": 33, "unit": "%"},
      {"measurement": "IC50", "setting": "[5]", "result": 16.1, "unit": "µM"}
    ]}
  ]
}
